We go through one compound from patent EP4800018A1, “PAN-KRAS INHIBITOR AND USE THEREOF IN MEDICINES” (Betta Pharmaceuticals Co., Ltd., priority 2023, dated 2025).

Test [1] has as its system KRAS-G12D mutant tumor cells AGS. Nature of the test: Cell Proliferation Inhibition Assay (AGS), Cell-titer GLO, 96 h. In kind it is cell-based. Particulars: Homo sapiens, AGS, 96 h, AGS cells, 96 h incubation, Cell-titer GLO; read-out: AGS(G12D). In outline:
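Inhibition % was derived from CellTiter-Glo luminescence (max minus measured, over max minus blank) and fitted to give IC50. Cells were KRAS-G12D AGS in low-attachment wells, treated for 96 h at 37°C.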

Test [2] deals with KRAS-G12V mutant tumor cells SW620. Nature of the test: Cell Proliferation Inhibition Assay (SW620), Cell-titer GLO, 96 h. In kind it is cell-based. Particulars: Homo sapiens, SW-620, 96 h, SW620 cells, 96 h incubation, Cell-titer GLO; read-out: SW620(G12V). In outline: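 Readout: Cell-titer GLO luminescence after 96 h at 37°C, converted to percent inhibition against 0.5% DMSO and blank controls, with IC50 from curve fit. Low-attachment SW620 cultures (1×10^3 cells/well) were dosed at 10000–0.03 nM final.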

Take `CC1OCCCn2c(c3c4cc(ccc42)-c2csc(n2)CC(NC(=O)C2C(C)C2C)C(=O)N2NC(C(=O)OCC(C)(C)C3)C3CC2C3)-c2cc(N3CCN(C)CC3)cnc21` [Example 186, (1r,2R,3S)-2,3-dimethyl-N-((1^5S,6^4S,4S,Z)-1^5,10,10-trimethyl-1^2-(4-methylpiperazin-1-yl)-5,7-dioxo-1^8,1^9-dihydro-1^5H,1^7H-8-oxa-6^2,6^3-diaza-1(13,15)-pyrido[3',2':7,8][1,5]oxazonino[5,6-a]indola-2(4,2)-thiazola-6(2,4)-bicyclo[3.1.1]heptanacycloundecaphane-4-yl)cyclopropane-1-carbox amide]: the IC50 in test [1] came to 0.42 nM; in test [2], 0.15 nM.
